According to PubChem BioAssay (NCI):
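All cell lines were grown in 96-well plates and treated with compound for 48 hours. GI50: concentration for 50% inhibition of growth. TGI: concentration producing complete growth inhibition.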

Columns and labels:
Assay in all cases: growth of human tumour cells (NCI), 48 h
[1] = test system: 786-0 renal
[2] = test system: A498 renal
[3] = test system: A549 NSCLC
[4] = test system: ACHN renal
[5] = test system: BT-549 breast
[6] = test system: CAKI-1 renal
[7] = test system: CCRF-CEM leukemia
[8] = test system: COLO 205 colon
[9] = test system: DU-145 prostate
[10] = test system: EKVX NSCLC
[11] = test system: HCT-116 colon
[12] = test system: HCT-15 colon
[13] = test system: HL-60(TB) leukemia
[14] = test system: HOP-62 NSCLC
[15] = test system: HOP-92 NSCLC
[16] = test system: HS 578T breast
[17] = test system: HT29 colon
[18] = test system: IGROV1 ovarian
[19] = test system: K-562 leukemia
[20] = test system: KM12 colon
[21] = test system: LOX IMVI melanoma
[22] = test system: M14 melanoma
[23] = test system: MCF7 breast
[24] = test system: MDA-MB-231 breast
[25] = test system: MDA-MB-435
[26] = test system: MOLT-4 leukemia
[27] = test system: NCI-H226 lung
[28] = test system: NCI-H23 lung
[29] = test system: NCI-H460 lung
[30] = test system: NCI-H522 lung
[31] = test system: NCI/ADR-RES ovarian
[32] = test system: OVCAR-3 ovarian
[33] = test system: OVCAR-4 ovarian
[34] = test system: OVCAR-5 ovarian
[35] = test system: OVCAR-8 ovarian
[36] = test system: PC-3 prostate
[37] = test system: RPMI-8226 leukemia
[38] = test system: RXF 393 renal
[39] = test system: SF-268 CNS
[40] = test system: SF-295 CNS
[41] = test system: SF-539 CNS
[42] = test system: SK-MEL-2 melanoma
[43] = test system: SK-MEL-28 melanoma
[44] = test system: SK-MEL-5 melanoma
[45] = test system: SK-OV-3 ovarian
[46] = test system: SN12C renal
[47] = test system: SNB-19 CNS
[48] = test system: SNB-75 CNS
[49] = test system: SR leukemia
[50] = test system: SW-620 colon
[51] = test system: T-47D breast
[52] = test system: TK-10 renal
[53] = test system: U251 CNS
[54] = test system: UACC-257 melanoma
[55] = test system: UACC-62 melanoma
[56] = test system: UO-31 renal
[57] = test system: HCC-2998 colon

Structure (SMILES): O=S(=O)(/N=c1\scc(-c2ccccc2)n1-c1ccccc1)c1ccc(N2N=C3c4ccccc4CC3C2c2ccc(Cl)cc2)cc1 (stereo unspecified)
- GI50 [1]: 32.7 µM
- TGI [1]: > 100 µM
- GI50 [2]: 79.8 µM
- TGI [2]: > 100 µM
- GI50 [3]: 31.4 µM
- TGI [3]: > 100 µM
- GI50 [4]: 40.1 µM
- TGI [4]: > 100 µM
- GI50 [5]: 41.4 µM
- TGI [5]: > 100 µM
- GI50 [6]: 46.4 µM
- TGI [6]: > 100 µM
- GI50 [7]: 18.6 µM
- TGI [7]: 59.3 µM
- GI50 [8]: 23.6 µM
- TGI [8]: 54.9 µM
- GI50 [9]: 54.3 µM
- TGI [9]: > 100 µM
- GI50 [10]: 61.1 µM
- TGI [10]: > 100 µM
- GI50 [11]: 47.5 µM
- TGI [11]: > 100 µM
- GI50 [12]: 47.7 µM
- TGI [12]: > 100 µM
- GI50 [13]: 29.6 µM
- TGI [13]: 69 µM
- GI50 [14]: 93.9 µM
- TGI [14]: > 100 µM
- GI50 [15]: 38.6 µM
- TGI [15]: > 100 µM
- GI50 [16]: 33 µM
- TGI [16]: > 100 µM
- GI50 [17]: 44 µM
- TGI [17]: > 100 µM
- GI50 [18]: 25.7 µM
- TGI [18]: 85.1 µM
- GI50 [19]: 20 µM
- TGI [19]: 55.5 µM
- GI50 [20]: 19.9 µM
- TGI [20]: 89 µM
- GI50 [21]: 21.5 µM
- TGI [21]: 43.5 µM
- GI50 [22]: > 100 µM
- TGI [22]: > 100 µM
- GI50 [23]: > 100 µM
- TGI [23]: > 100 µM
- GI50 [24]: 70 µM
- TGI [24]: > 100 µM
- GI50 [25]: 24.2 µM
- TGI [25]: > 100 µM
- GI50 [26]: 18.5 µM
- TGI [26]: > 100 µM
- GI50 [27]: 94.6 µM
- TGI [27]: > 100 µM
- GI50 [28]: 21 µM
- TGI [28]: 51.3 µM
- GI50 [29]: > 100 µM
- TGI [29]: > 100 µM
- GI50 [30]: 22.7 µM
- TGI [30]: 82.3 µM
- GI50 [31]: 51.5 µM
- TGI [31]: > 100 µM
- GI50 [32]: 44.3 µM
- TGI [32]: > 100 µM
- GI50 [33]: 63.8 µM
- TGI [33]: > 100 µM
- GI50 [34]: 38.1 µM
- TGI [34]: > 100 µM
- GI50 [35]: 36.1 µM
- TGI [35]: > 100 µM
- GI50 [36]: 19.1 µM
- TGI [36]: > 100 µM
- GI50 [37]: 21.5 µM
- TGI [37]: > 100 µM
- GI50 [38]: 42 µM
- TGI [38]: > 100 µM
- GI50 [39]: > 100 µM
- TGI [39]: > 100 µM
- GI50 [40]: 40.7 µM
- TGI [40]: > 100 µM
- GI50 [41]: 62.6 µM
- TGI [41]: > 100 µM
- GI50 [42]: 36 µM
- TGI [42]: > 100 µM
- GI50 [43]: 67.7 µM
- TGI [43]: > 100 µM
- GI50 [44]: 25.2 µM
- TGI [44]: 75 µM
- GI50 [45]: 76.2 µM
- TGI [45]: > 100 µM
- GI50 [46]: 50.8 µM
- TGI [46]: > 100 µM
- GI50 [47]: 78.8 µM
- TGI [47]: > 100 µM
- GI50 [48]: > 100 µM
- TGI [48]: > 100 µM
- GI50 [49]: 17.3 µM
- TGI [49]: 45.9 µM
- GI50 [50]: 35 µM
- TGI [50]: > 100 µM
- GI50 [51]: > 100 µM
- TGI [51]: > 100 µM
- GI50 [52]: 29.6 µM
- TGI [52]: > 100 µM
- GI50 [53]: 26.1 µM
- TGI [53]: 75.5 µM
- GI50 [54]: 83.5 µM
- TGI [54]: > 100 µM
- GI50 [55]: 32.7 µM
- TGI [55]: > 100 µM
- GI50 [56]: 45.4 µM
- TGI [56]: > 100 µM

Structure (SMILES): O=c1oc2ccccc2c2c1Sc1ccccc1N2
- TGI [1]: > 100 µM
- TGI [2]: > 100 µM
- TGI [4]: > 100 µM
- TGI [5]: > 100 µM
- TGI [6]: > 100 µM
- TGI [7]: > 100 µM
- TGI [8]: > 100 µM
- TGI [9]: > 100 µM
- TGI [10]: > 100 µM
- TGI [57]: > 100 µM
- TGI [11]: > 100 µM
- TGI [12]: > 100 µM
- TGI [13]: > 100 µM
- TGI [14]: > 100 µM
- TGI [15]: > 100 µM
- TGI [16]: > 100 µM
- TGI [17]: > 100 µM
- TGI [18]: > 100 µM
- TGI [19]: > 100 µM
- TGI [20]: > 100 µM
- TGI [21]: > 100 µM
- TGI [22]: > 100 µM
- TGI [23]: > 100 µM
- TGI [24]: > 100 µM
- TGI [25]: > 100 µM
- TGI [26]: > 100 µM
- TGI [27]: > 100 µM
- TGI [28]: > 100 µM
- TGI [29]: > 100 µM
- TGI [30]: > 100 µM
- TGI [31]: > 100 µM
- TGI [32]: > 100 µM
- TGI [33]: > 100 µM
- TGI [34]: > 100 µM
- TGI [35]: > 100 µM
- TGI [36]: > 100 µM
- TGI [37]: > 100 µM
- TGI [38]: > 100 µM
- TGI [39]: > 100 µM
- TGI [40]: > 100 µM
- TGI [41]: > 100 µM
- TGI [42]: > 100 µM
- TGI [43]: > 100 µM
- TGI [44]: > 100 µM
- TGI [46]: > 100 µM
- TGI [47]: > 100 µM
- TGI [49]: > 100 µM
- TGI [50]: > 100 µM
- TGI [51]: 45.1 µM
- TGI [52]: > 100 µM
- TGI [53]: > 100 µM
- TGI [54]: > 100 µM
- TGI [55]: > 100 µM
- TGI [56]: > 100 µM
